In ChEMBL document CHEMBL1201862, “PubChem BioAssay data set” (2004):
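Exposure lasted 48 hours, with cells grown in 96-well plates and compounds tested at five concentrations. GI50 = concentration required for 50% inhibition of growth.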 The source made the active and inactive calls. Cut-off read from the data, not from the text of the source: active = GI50 up to about 1.1 µM and inactive = higher.

Tests used:
Assay in all cases: NCI-60 cell line screen, 48 h
UO-31 = tested on: UO-31
COLO 205 = tested on: COLO 205
HOP-92 = tested on: HOP-92
786-0 = tested on: 786-0
CAKI-1 = tested on: CAKI-1
RPMI-8226 = tested on: RPMI-8226
NCI-H226 = tested on: NCI-H226
TK-10 = tested on: TK-10
KM12 = tested on: KM12
PC-3 = tested on: PC-3
OVCAR-3 = tested on: OVCAR-3
HOP-62 = tested on: HOP-62
ACHN = tested on: ACHN
SW-620 = tested on: SW-620
NCI-H460 = tested on: NCI-H460
SK-MEL-5 = tested on: SK-MEL-5
LOX IMVI = tested on: LOX IMVI
Malme-3M = tested on: Malme-3M
HL-60 = tested on: HL-60
HCC 2998 = tested on: HCC 2998

SMILES	GI50 (UO-31)	GI50 (COLO 205)	GI50 (HOP-92)	GI50 (786-0)	GI50 (CAKI-1)	GI50 (RPMI-8226)	GI50 (NCI-H226)	GI50 (TK-10)	GI50 (KM12)	GI50 (PC-3)	GI50 (OVCAR-3)	GI50 (HOP-62)	GI50 (ACHN)	GI50 (SW-620)	GI50 (NCI-H460)	GI50 (SK-MEL-5)	GI50 (LOX IMVI)	GI50 (Malme-3M)	GI50 (HL-60)	GI50 (HCC 2998)
COc1ccc(/C=N/n2c(=O)[nH]c3ccccc3c2=O)cc1	> 100 µM (inactive)	> 100 µM (inactive)	> 100 µM (inactive)	> 100 µM (inactive)	> 100 µM (inactive)	> 100 µM (inactive)	> 100 µM (inactive)	> 100 µM (inactive)	> 100 µM (inactive)	> 100 µM (inactive)	> 100 µM (inactive)	> 100 µM (inactive)	> 100 µM (inactive)	> 100 µM (inactive)	> 100 µM (inactive)	> 100 µM (inactive)	> 100 µM (inactive)			
CCCCC/C(=N\c1[nH]cnc1C(N)=O)OCC	55.5 µM (inactive)	> 100 µM (inactive)		> 100 µM (inactive)	> 100 µM (inactive)	> 100 µM (inactive)	> 100 µM (inactive)	> 100 µM (inactive)	> 100 µM (inactive)	> 100 µM (inactive)	> 100 µM (inactive)	> 100 µM (inactive)	> 100 µM (inactive)	> 100 µM (inactive)	> 100 µM (inactive)	> 100 µM (inactive)	> 100 µM (inactive)	> 100 µM (inactive)	> 100 µM (inactive)	> 100 µM (inactive)
C[C@]12CC[C@H](O)CC1=CC[C@@H]1[C@@H]2CC[C@]2(C)/C(=N/OCCN3CCCC3)CC[C@@H]12	16.7 µM (inactive)	16 µM (inactive)		18.1 µM (inactive)	20.9 µM (inactive)	15.2 µM (inactive)	14.5 µM (inactive)	24.1 µM (inactive)	13.7 µM (inactive)	17.8 µM (inactive)	16.5 µM (inactive)	21.3 µM (inactive)	25.5 µM (inactive)	16.4 µM (inactive)	12 µM (inactive)	14.6 µM (inactive)	19.1 µM (inactive)	14.1 µM (inactive)	7.74 µM (inactive)	22.3 µM (inactive)
N#Cc1c(NC(=S)Nc2ccc(Cl)cc2)sc2c1CCN(N1CCc3c(sc(NC(=S)Nc4ccc(Cl)cc4)c3C#N)C1)C2	14.9 µM (inactive)	16 µM (inactive)		21 µM (inactive)	63.8 µM (inactive)	> 100 µM (inactive)	16.1 µM (inactive)	41 µM (inactive)	55.2 µM (inactive)	37.4 µM (inactive)	74.5 µM (inactive)	16 µM (inactive)	12.7 µM (inactive)	30.1 µM (inactive)	32.4 µM (inactive)	10.5 µM (inactive)	5.62 µM (inactive)	55.2 µM (inactive)	30.2 µM (inactive)	50.2 µM (inactive)
O=C(O)c1ccc(Nc2nc3cc(C(F)(F)F)ccc3nc2-c2ccccc2)cc1	17.1 µM (inactive)	17.5 µM (inactive)		18.7 µM (inactive)	23.3 µM (inactive)	16.4 µM (inactive)	25 µM (inactive)	15.2 µM (inactive)	13.2 µM (inactive)	18.5 µM (inactive)	15.2 µM (inactive)	17.2 µM (inactive)	19.1 µM (inactive)	17.2 µM (inactive)	19.1 µM (inactive)	21 µM (inactive)	15.2 µM (inactive)	23.7 µM (inactive)	27.7 µM (inactive)	16.7 µM (inactive)
Fc1ccc(C(OCCN2CCC3CCC(C2)N3C/C=C/c2cccnc2)c2ccc(F)cc2)cc1 (configuration not stated)	1.88 µM (inactive)	1.3 µM (inactive)	13.4 µM (inactive)	5.27 µM (inactive)	12 µM (inactive)	3.43 µM (inactive)	12.1 µM (inactive)	11.5 µM (inactive)	10.5 µM (inactive)	9.93 µM (inactive)	12.8 µM (inactive)	14.2 µM (inactive)	14.2 µM (inactive)	10.1 µM (inactive)	12.7 µM (inactive)	4.01 µM (inactive)	13.1 µM (inactive)	4.08 µM (inactive)		4.79 µM (inactive)
O=c1c2c3c(sc2nc2n1N=CN(c1ccc(Cl)cc1)C2)CCCC3	> 100 µM (inactive)	35.8 µM (inactive)	8.47 µM (inactive)	19.3 µM (inactive)	23.8 µM (inactive)	46.8 µM (inactive)	42.3 µM (inactive)	> 100 µM (inactive)	> 100 µM (inactive)	15.1 µM (inactive)	19.4 µM (inactive)	50 µM (inactive)	75 µM (inactive)	> 100 µM (inactive)	38 µM (inactive)	44.8 µM (inactive)	36.3 µM (inactive)	16.2 µM (inactive)		2.26 µM (inactive)
NS(=O)(=O)c1ccc(NCc2nc3ccccc3[nH]2)cc1	> 100 µM (inactive)	> 100 µM (inactive)	> 100 µM (inactive)	> 100 µM (inactive)	> 100 µM (inactive)		> 100 µM (inactive)	> 100 µM (inactive)	> 100 µM (inactive)	> 100 µM (inactive)	> 100 µM (inactive)	> 100 µM (inactive)	> 100 µM (inactive)		> 100 µM (inactive)	> 100 µM (inactive)	> 100 µM (inactive)	> 100 µM (inactive)		
C=CCCCC1(C)CCNC1=S (configuration not stated)	> 100 µM (inactive)	> 100 µM (inactive)	> 100 µM (inactive)	> 100 µM (inactive)	> 100 µM (inactive)	> 100 µM (inactive)		> 100 µM (inactive)		> 100 µM (inactive)	> 100 µM (inactive)	> 100 µM (inactive)	> 100 µM (inactive)	> 100 µM (inactive)	> 100 µM (inactive)	> 100 µM (inactive)				> 100 µM (inactive)
c1ccc([P+](c2ccccc2)(c2ccccc2)C2c3ccccc3-c3ccccc32)cc1	2.67 µM (inactive)	1.33 µM (inactive)		3.09 µM (inactive)	3.46 µM (inactive)	1.35 µM (inactive)	1.95 µM (inactive)	2.53 µM (inactive)		1.47 µM (inactive)	1.87 µM (inactive)	1.5 µM (inactive)	2.35 µM (inactive)	3.08 µM (inactive)	1.83 µM (inactive)	1.77 µM (inactive)	1.32 µM (inactive)	2.35 µM (inactive)	1.16 µM (inactive)	2.6 µM (inactive)
O=C(CCCCCCCCC(=O)NN1C(=O)/C(=C\c2ccc(O)c(O)c2)SC1c1c(O)ccc2ccccc12)NN1C(=O)C(=Cc2ccc(O)c(O)c2)SC1c1c(O)ccc2ccccc12 (configuration not stated)	3.39 µM (inactive)	20.4 µM (inactive)	8.47 µM (inactive)	3.46 µM (inactive)	6.01 µM (inactive)	3.85 µM (inactive)	6.08 µM (inactive)	> 50.7 µM (inactive)	23.9 µM (inactive)	10.9 µM (inactive)	2.25 µM (inactive)	2.45 µM (inactive)	4.8 µM (inactive)	7.64 µM (inactive)	4.62 µM (inactive)	1.93 µM (inactive)	1.79 µM (inactive)	5.24 µM (inactive)		24.5 µM (inactive)
COC(=O)Cc1c(C(=O)CC(C)(C)n2cnc(CCN3C(=O)CCC3=O)c2)[nH]c2ccccc12	37.5 µM (inactive)	> 100 µM (inactive)	15 µM (inactive)	> 100 µM (inactive)	> 100 µM (inactive)		> 100 µM (inactive)	> 100 µM (inactive)	> 100 µM (inactive)	> 100 µM (inactive)	> 100 µM (inactive)		> 100 µM (inactive)	> 100 µM (inactive)	> 100 µM (inactive)	> 100 µM (inactive)	> 100 µM (inactive)	> 100 µM (inactive)		
COc1ccc(C[C@H]2NC(=O)/C=C/C[C@@H]([C@H](C)[C@H]3O[C@@H]3c3ccccc3)OC(=O)[C@H](CC(C)C)OC(=O)[C@H](C)CNC2=O)cc1	4.71e-05 µM (active)	1.99e-05 µM (active)		1.25e-05 µM (active)	1.25e-05 µM (active)	2.85e-05 µM (active)	> 4.41e-05 µM (active)	> 0.0001 µM (active)	3.93e-05 µM (active)	2.09e-05 µM (active)	1.58e-05 µM (active)	2.47e-05 µM (active)	5.93e-05 µM (active)	1.4e-05 µM (active)	3.13e-05 µM (active)	7.53e-06 µM (active)	1.74e-05 µM (active)	2.19e-05 µM (active)	1.55e-05 µM (active)	4.45e-05 µM (active)
Cn1ncc2c(NCCc3ccccc3)nc(Cl)nc21	19 µM (inactive)	17.3 µM (inactive)	15.3 µM (inactive)	23.4 µM (inactive)	28.1 µM (inactive)	13.7 µM (inactive)	21.5 µM (inactive)	20.9 µM (inactive)	26.2 µM (inactive)	17.9 µM (inactive)	33.3 µM (inactive)	24.4 µM (inactive)	28.6 µM (inactive)	23.3 µM (inactive)	15.6 µM (inactive)	17.6 µM (inactive)	16.7 µM (inactive)	58.9 µM (inactive)		18.8 µM (inactive)
COc1cccc2c(Nc3ccc(S(=O)(=O)N=C(N)N)cc3)c3ccc([N+](=O)[O-])cc3nc12	16.3 µM (inactive)	18.8 µM (inactive)	12.3 µM (inactive)	11.5 µM (inactive)	5.57 µM (inactive)	8.05 µM (inactive)	38.8 µM (inactive)	25.6 µM (inactive)	3.99 µM (inactive)	18.7 µM (inactive)	20.4 µM (inactive)	15.7 µM (inactive)	10.2 µM (inactive)	16.7 µM (inactive)	4.32 µM (inactive)	11.6 µM (inactive)	11.4 µM (inactive)	10.7 µM (inactive)		3.23 µM (inactive)
